Laboratory results as given in patent EP4483904A1, “POLYOXOMETALATES AS MEMBRANE CARRIERS” (Universität Wien, priority 2023, dated 2025).
“And” between values parts separate entries of the source, which are not always exact repeats. Identical values can stand only once.

Key:
[1] = Stability investigation by NMR spectroscopy (hydrolysis in buffer/media); assay type: physicochemical; details: for Hydrolysis/Stability pH 7.5: 10 mM Hepes or 10 mM Tris, pH 7.4; for Hydrolysis/Stability pH 7.5 / Hydrolysis/Stability pH 5.5: 107 mM NaCl; for Hydrolysis/Stability pH 5.5: 10 mM Mes
Description: POMs of the globular Keggin and planar Anderson archetype and with varying charge status from -3 to -8 (Fig. 1) were selected. To offset the known [XW12O40]^n- (X = hetero-ion) hydrolysis propensity in aqueous solution, most pronounced at neutral pH, more highly charged mixed-metal derivatives (Fig. 1,lefthand side) were also included. The latter are obtained by hydrolytic removal of one W=O^4+ unit from the Keggin structure and the subsequent incorporation of an addenda metal to fill the cavity of the monolacunary intermediate. In detail, the following POM anions were studied (as acid or sodium, potassium, or tetraalkylammonium salts), see Fig. 1: [α-P^VW^VI12O40]^3- ([PW12]^3-), [α-Si^IVW^VI12O40]^4- ([SiW12]^4-), [α-Al^IIIW^VI12O40]^5- ([AlW12]^5-), [α-P^VV^VW^VI11O40]^4- ([PVW11]^4-), [α-Si^IVMo^VIW^VI11O40]^4- ([SiMoW11]^4-), [α- HAl^IIIGe^IVW^VI11O39(H2O)]^5- ([GeAlW11]^5-), [{α-P^VW^VI11O39Zr^IV(µ-OH)(H2O)}2]^8- ([(PZrW11)2]^8-), and [Al^III(OH)6Mo^VI6O18]^3- ([AlMo6]^3-). First, their long-term (24 h and longer) stability in aqueous solution (slightly acidic and neutral) was investigated by applying the active NMR nuclei in their composition (see).

[2] = Transport experiments in CF-loaded anionic vesicles; assay type: biochemical; details: DMPE/DPPG/CHOL (anionic), 13 µM phospholipids, 10 µM heptaArg
Experimental: Anionic vesicles in neutral media: Anionic vesicles were prepared analogously except for the lipid composition, DMPE/DPPG/CHOL (4.4/10.4/2.6 mg, 1/2/1 molar ratio) in a 1:1 mixture of CHCl3 and MeOH (1mL), the hydration (60 mins) and extrusion were performed at 55 °C, and the employed buffers were 100 mM CF, 10 mM Tris, pH 7.4 and 10 mM Tris, 140 mM NaCl, pH 7.4 for rehydration and elution, respectively.
Vesicles stock solutions (5-10 µL) were diluted with the corresponding buffer in a disposable plastic cuvette and gently stirred (total volume 2000 µL, final lipid concentration 13 µM). […] Fluorescence intensities were normalized to fractional emission as: I(t) = (It −I0)/(I∞ −I0) [formula]
Where I0 = It before POM addition and […] = I∞ after lysis. For Hill analysis, It before lysis was defined as transport activity, Y, and plotted against POM concentration, c, and fitted to the Hill equation (2), to afford the activity in absence of POM, Y0, the maximal activity, Ymax, the concentration needed to achieve 50 % of maximal activity, EC50, and the Hill coefficient, n. Y = Y0 + (Ymax −Y0)/(1 + (((EC50)/(c)))^n) [formula]
In the transport measurements, where different carriers (POMs) are tested with the same cargo, the activator efficiency (E) is determined by their capacity to transport the impermeable cargo to the intravesicular region and is characterized by Ymax, its maximal activity, and EC50, the effective activator concentration. An ideal carrier reaches high Ymax at low EC50. To count both factors, the activator efficiency is defined as: E = Ymax (pEC50)/(f) [formula] were pEC50 is the negative logarithm of the EC50, and fa scaling factor, which was set to 20.6 to calibrate the highest (previously known) activation efficiency, E, as 10.

[3] = test system: oligopeptide (heptaArg, protamine, polyArg or heptaLys); experiment: Isothermal titration calorimetry, POM-cargo interaction (summary statement); assay type: binding; details: ITC, POM and cargos
Experimental: All experiments were performed with a VP-ITC MicroCalorimeter from MicroCal, Int,. at atmospheric pressure and 298.15 K. Solutions were degassed and thermostatic prior the titration experiments in a ThermoVac accessory. A constant volume of POM ([PVW11]^4- or [SiMoW11]^4-) (10 µL per injection) was injected into the oligopeptide solution (heptaArg, protamine, polyArg or heptaLys) in 10 mM Mes, pH 5.5 to determine the apparent binding affinity of [PVW11]^4- and [SiMoW11]^4- with the oligopeptides. Dilution heats were determined by titration of the POM into buffer and subtracted from the reaction heat. The neat reaction heat was fitted with Origin 7.0 software by using the "one-set-of-sites" model to obtain the complex stability constant (Ka) and molar reaction enthalpy (ΔH°). The free energy (ΔG°) and entropy changes (ΔS°) were obtained according to the relation: ΔG° = - R TInKa = ΔH°-TΔS°.
To affect membrane transport, any carrier needs to display an affinity towards the cargo as well as towards the lipid bilayer. Accordingly, the interaction between [PVW11]^4- and [SiMoW11]^4- and the cargos was analyzed by isothermal titration calorimetry (ITC). […] The strong but reversible intermolecular interactions between the low-charged POMs and the cationic peptides established by ITC present an interesting finding. […]

CHO-K1 cells = experiment: Cellular viability assay (MTT assay, resazurin readout); assay type: cell-based; details: 10 µM and below, after 24 h
Experimental: For MTT assays in presence of activators, CHO-K1 cells were incubated in Ham's F-12 medium containing 10 % fetal bovine serum and 1.0 % penicillin streptomycin at 37 °C in a 5 % CO2 for 24 hours. CHO-K1 cells were dispersed in a 96-well flat bottom tissue culture treated plates (Eppendorf) at density of 5×10^3 cells/well (per 100 µL) and incubated in Ham's F-12 containing 10 % (v/v) fetal bovine serum at 37 °C in a 5 % CO2 incubator for 12 h to allow cell adhesion. Then, cells were incubated with POM, B12Br12^2-, or PyBu (10 µM, 50 µM, 100 µM) for another 24 h. After this incubation time, 20 µL resazurin solution (0.15 mg/mL) was added to cells and incubated for another 3 h. Finally, the plates were read at λem = 590 nm (λex = 560 nm) using a JASCO fluorometer FP-8500.
The cell viability was evaluated by the following equation: Cells viability = (FIsample −FIblank)/(FIcontrol −FIblank) × 100% [formula]
Where, FIsample is the fluorescence intensity of cells incubated with different compounds, FIblank is the fluorescence intensity of medium, and FIcontrol is the fluorescence intensity of cells in absence of any compound.

[4] = Nutrient mixture F-12 Ham after incubation for 1 h at 37 °C

Substance | Hydrolysis/Stability pH 7.5 [1] | Hydrolysis/Stability pH 5.5 [1] | POM anions with % for parent (active) anion based on signals integration [1, 4] | E (activation efficiency) [2] | EC50 [2] [µM] | Ymax [2] [%] | supramolecular interactions with the cargos (affinity, order of magnitude) [3] | viability (CHO-K1 cells) [%] | further results
K4[α-P^VV^VW^VI11O40]·4H2O [[PVW11]^4-] | 20 % to [P^VW^VI11O39]^7- and 20 % hydrolyzed to [P^VW^VI11O39]^7 | stable | [P^VW^VI11O39]^7- (coordinated to different alkali and earth alkali metals leading to different shifts) and [P^VV^VW^VI11O40]^4- (16 %) | 2.8 | 50 | 45 | ~10^7 M^-1 | ~80 | POM anions with % for parent (active) anion based on signals integration ([1]; D2O): [P^VV^VW^VI11O40]^4-; % of hydrolysis product [P^VW^VI11O39]^7- based on signals integration ([1]; Mes pH 5.5 after 1 day): 1%; POM anions with % for parent (active) anion based on signals integration ([1]; Mes pH 5.5 after 1 day): 99%; % of hydrolysis product [P^VW^VI11O39]^7- based on signals integration ([1]; Mes pH 5.5 after 5 days): 1%; POM anions with % for parent (active) anion based on signals integration ([1]; Mes pH 5.5 after 5 days): 99%; % of hydrolysis product [P^VW^VI11O39]^7- based on signals integration ([1]; Mes pH 5.5 freshly prepared): 1%; POM anions with % for parent (active) anion based on signals integration ([1]; Mes pH 5.5 freshly prepared): 99%; POM anions with % for parent (active) anion based on signals integration ([1]; Nutrient mixture F-12 Ham freshly prepared): [P^VW^VI11O39]^7- (coordinated to different alkali and earth alkali metals leading to different shifts) and [P^VV^VW^VI11O40]^4- (43 %); POM anions with % for parent (active) anion based on signals integration ([1]; Tris-HCl pH 7.5 after 1 day): [P^VW^VI11O39]^7- and [P^VV^VW^VI11O40]^4- (71 %); POM anions with % for parent (active) anion based on signals integration ([1]; Tris-HCl pH 7.5 after 5 days): [P^VW^VI11O39]^7- and [P^VV^VW^VI11O40]^4- (68 %); POM anions with % for parent (active) anion based on signals integration ([1]; Tris-HCl pH 7.5 freshly prepared): [P^VW^VI11O39]^7- and [P^VV^VW^VI11O40]^4- (81 %); hydrolysis on long time scales at neutral pH ([1]; neutral pH, after 24 h): ca. 20%
K4[α-Si^IVMo^VIW^VI11O40]·24H2O [[SiMoW11]^4-] | stable | stable | [Si^IVMo^VIW^VI11O40]^4- | 3.6 | 60 | 61 | ~10^7 M^-1 | ~80 | POM anions with % for parent (active) anion based on signals integration ([1]; Mes pH 5.5 (time not given)): [Si^IVMo^VIW^VI11O40]^4-; POM anions with % for parent (active) anion based on signals integration ([1]; Tris-HCl pH 7.5 (time not given)): [Si^IVMo^VIW^VI11O40]^4-
